Reference: patent publication US11814402B2, “Binuclear palladacycles and their use in the treatment of cancer” (Stellenbosch University, priority 2019, dated 2023)

Assays:
[1] = Turbidimetric assay - solubility in 10% DMSO:PBS; assay type: physicochemical; details: for aqueous solubility (in words): aqueous media
Experimental: A 0.01 M pH 7.4 Phosphate Buffered Saline (PBS) solution was prepared by dissolving one PBS tablet (Sigma-Aldrich) in 200 mL distilled water at 25° C. to yield a buffered solution containing 0.01 M phosphate buffer, 0.003 M KCl and 0.14 M NaCl. The solution equilibrated at 25° C. for one hour upon which the pH was confirmed.
A preparation plate (96-well flat bottomed) was prepared by serially diluting the compound to achieve the desired concentrations (5.0 μM to 200 μM). The test plate was prepared by pipetting […] into wells 7-12. Each compound was tested in triplicate thus a single plate could be used to evaluate two compounds. […] of each compound concentration was pipetted from the preparation plate into the test plate to bring the total volume up to 200 μL and to ensure that a 10% (v/v) DMSO/PBS solution is achieved. Test plates were prepared in duplicate and one plate was incubated at room temperature (25° C.) and the second at physiological temperature (37° C.). Both test plates were incubated for 2 hours upon which the UV-Vis absorbance readings were measured at 620 nm. The corrected absorbance readings were obtained by subtracting the blank readings from each concentration absorbance.

[2] = tested on: human breast adenocarcinoma MCF-7 (estrogen receptor positive) cells; assay: Cytotoxicity (MTT) assay, MCF-7; assay type: cell-based; details: 48 hours treatment
Experimental: (§1) These included cell viability tests using a MTT assay, and in some cases Western blots to test for DNA damage using γ-H2AX and PARP cleavage to determine whether or not apoptosis takes place.
The complex solutions were prepared by dissolution in DMSO to obtain 5 mM stock solutions. Solutions were stored at room temperature for no more than a week. […] The 3-(4,5-dimethylthiazol-2-yl)-2,5-diphenyltetrazolium bromide (MTT) assay was then used, as described by the manufacturer's instructions: 10 μL of MTT solution was added to each well. Well plates were then incubated at 37° C. for 4 h. This was followed by addition of 100 μL solubilisation buffer (10% SDS in 0.01 M HCl) and incubation overnight at 37° C. Absorbance at 585 nm was then determined for each well and the mean cell viability was calculated as a percentage of the mean vehicle control. The experiments were performed in triplicate and the data were used to determine the half maximal inhibitory concentration values (IC50).

[3] = tested on: human breast adenocarcinoma MDA-MB-231 (estrogen receptor negative) cells; assay: Cytotoxicity (MTT) assay, MDA-MB-231; assay type: cell-based; details: 48 hours treatment
Experimental: as §1
The complex solutions were prepared by dissolution in DMSO to obtain 5 mM stock solutions. Solutions were stored at room temperature for no more than a week. […] After 48 hours, the cells were treated with various concentrations of complex (0-1 μM) or the vehicle for 48 hours. The 3-(4,5-dimethylthiazol-2-yl)-2,5-diphenyltetrazolium bromide (MTT) assay was then used, as described by the manufacturer's instructions: 10 μL of MTT solution was added to each well. Well plates were then incubated at 37° C. for 4 h. This was followed by addition of 100 μL solubilisation buffer (10% SDS in 0.01 M HCl) and incubation overnight at 37° C. Absorbance at 585 nm was then determined for each well and the mean cell viability was calculated as a percentage of the mean vehicle control. The experiments were performed in triplicate and the data were used to determine the half maximal inhibitory concentration values (IC50).

ME1402 melanoma cells = details: Biochem. Pharmacol. 2013, 86, 1650; read-out: IC50 proliferation ME1402 melanoma cells; cited from earlier work
WM1158 melanoma cells = details: Biochem. Pharmacol. 2013, 86, 1650; read-out: IC50 proliferation WM1158 melanoma cells; cited from earlier work
[4] = tested on: oestrogen receptor positive MCF7 breast cancer cells; details: prior report on AJ5; read-out: IC50 MCF-7; cited from earlier work
[5] = tested on: oestrogen receptor negative MDA-MB-231 breast cancer cells; details: prior report on AJ5; cited from earlier work
[6] = Solubility in DMSO and DMSO/water (characterisation data); details: for behaviour on addition of water / aqueous medium: test medium; for Solubility: DMSO: in DMSO
[7] = tested on: MCF 7 breast cancer cell line tumour; assay: In vivo anti-tumour activity, MCF 7 (chick embryo model)
Experimental: (§2) The activity of BTC2 was evaluated in two breast cancer cell lines (MCF 7 and MDA-MB-231). The latter is an aggressive, metastatic cell line in which metastasis is often difficult to prevent or control.
(§3) Metastasis is the process of the spreading of the cancer from its site of origin to other parts of the body. This was evaluated using the same chick embryo model as mentioned above, and again compared to the known drug, paclitaxel.

[8] = tested on: MDA-MB 231 breast cancer cell line metastasis; assay: Metastasis reduction, MDA-MB 231 (chick embryo model); assay type: in vivo
Experimental: The ability of BTC2 to prevent metastasis was also evaluated.
as §3
When tested in the aggressive breast cancer cell line, MDA-MB 231, BTC2 was able to induce a 46% reduction in metastasis compared to 64% reduction for paclitaxel.

γ-H2AX in MCF7 cells = assay: Western blot, γ-H2AX (DNA damage); assay type: cell-based, human; details: treatment for 24 and 48 hours
Experimental: The complex solutions were prepared by dissolution in DMSO to obtain 0.1 and 0.2 μM stock solutions. Solutions were stored at room temperature for no more than a week. Human MCF7 breast adenocarcinoma cells in RPMI 1640 medium were plated in 6 cm petri dishes at 6×10^5 cells per plate. The cells were treated with the complex solutions for 24 or 48 hours. Cells were then lysed using whole cell lysis buffer (0.5 M tris-HCl, pH 6.8, 2% SDS, 10% glycerol, 1% β-mercaptoethanol and 0.02% bromophenol blue). Samples were boiled for 10 minutes. The proteins were resolved using SDS/PAGE (8-15% gels) as required. They were then transferred to Hybond ECL membranes which were then incubated with primary antibodies against PARP ½ (sc-7150), phospho-H2AX (#2577) and p38 (M000). Thereafter, the membranes were incubated with HRP-conjugated secondary antibodies (1:5000). The antibody-reactive proteins were visualised with a chemiluminescence reaction (ECL) detection system.
The most important proteins which are employed as markers for potential anti-cancer drugs are γ-H2AX, which, if present, is an indication of DNA damage and PARP, which if cleaved, is an indication that apoptosis has been induced. In order to allow for relative quantification of the proteins being detected, a loading control, P38, was used to ensure that loading discrepancies are not interpreted as drug-induced changes.

[9] = tested on: MDA-MB-231 breast cancer cell line tumour; assay: In vivo anti-tumour activity, MDA-MB-231 (chick embryo model); details: MDA-MB-231, about half the concentration of paclitaxel
Experimental: as §2
Again, BTC2 was used at about half the concentration of the control, paclitaxel.
as §3

[10] = turbidimetric assay, 10% DMSO:PBS pH 7.4, 37° C., 2 hours incubation

In the case of `CC(C)c1cccc(C(C)C)c1[N+]1=Cc2cccc[c]2[Pd-2]1([Cl])[P+](CC[P+](c1ccccc1)(c1ccccc1)[Pd-2]1([Cl])[c]2ccccc2C=[N+]1c1c(C(C)C)cccc1C(C)C)(c1ccccc1)c1ccccc1` (centres unmarked) [AJ5], the “aqueous solubility (in words)” value [1] is reported as “poor solubility”, the “Solubility in 10% DMSO:PBS at 37° C.” value [1, 10] is reported as 5.98 to 11.97 µg/mL and the IC50 [2] is reported as 180 ± 48 nM. The IC50 [3] was 190 ± 15 nM, the IC50 (ME1402 melanoma cells) was 190 nM and the IC50 (WM1158 melanoma cells) was 200 nM. The IC50 [4] was 175 nM and the IC50 [5] was 193 nM.

With `CC(C)c1cccc(C(C)C)c1[N+]1=Cc2cccc[c]2[Pd-2]1([Cl])[P+](C[P+](c1ccccc1)(c1ccccc1)[Pd-2]1([Cl])[c]2ccccc2C=[N+]1c1c(C(C)C)cccc1C(C)C)(c1ccccc1)c1ccccc1` (centres unmarked) [BC1] the “Solubility in 10% DMSO:PBS at 37° C.” value [1, 10] was 10.21 to 20.41 µg/mL, the IC50 [2] was 2700 ± 210 nM and the IC50 [3] was 2200 ± 190 nM.

For `CC(C)c1cccc(C(C)C)c1[N+]1=Cc2cccc[c]2[Pd-2]1([Cl])[P+](CCC[P+](c1ccccc1)(c1ccccc1)[Pd-2]1([Cl])[c]2ccccc2C=[N+]1c1c(C(C)C)cccc1C(C)C)(c1ccccc1)c1ccccc1` (centres unmarked) [BC3], the “Solubility in 10% DMSO:PBS at 37° C.” value [1, 10] was 6.12 to 12.25 µg/mL, the IC50 [2] was 5800 ± 280 nM and the IC50 [3] was 5000 ± 75 nM.

In the case of `CC(C)c1cccc(C(C)C)c1[N+]1=Cc2cccc[c]2[Pd-2]1([Cl])[P+](c1ccccc1)(c1ccccc1)[c-]1cccc1.CC(C)c1cccc(C(C)C)c1[N+]1=Cc2cccc[c]2[Pd-2]1([Cl])[P+](c1ccccc1)(c1ccccc1)[c-]1cccc1.[Fe+2]` (centres unmarked) [BC4], the “Solubility in 10% DMSO:PBS at 37° C.” value [1, 10] is reported as 13.65 to 27.30 µg/mL, the “IC50 MCF-7” value [2] is reported as “Inactive” and the “IC50 MDA-MB-231” value [3] is reported as “Inactive”. The “behaviour on addition of water / aqueous medium” value [6] was “completely intolerant of water”.

In the case of `CC(C)c1cccc(C(C)C)c1[N+]1=Cc2ccc(OCCOCCO)c[c]2[Pd-2]1([Cl])[P+](c1ccccc1)(c1ccccc1)[c-]1cccc1.CC(C)c1cccc(C(C)C)c1[N+]1=Cc2ccc(OCCOCCO)c[c]2[Pd-2]1([Cl])[P+](c1ccccc1)(c1ccccc1)[c-]1cccc1.[Fe+2]` (centres unmarked) [BTC4, [(PdCl{4-[2-(2-hydroxyethoxy)ethoxy]}CH═N{2,6-^iPr2-C6H3})2(μ-Ph2P(C5H4)Fe(C5H4)PPh2]], the “aqueous solubility (in words)” value [1] is reported as “highly insoluble”, the “IC50 MCF-7” value [2] is reported as “Inactive” and the “IC50 MDA-MB-231” value [3] is reported as “Inactive”. For the same molecule, the “Solubility: % DMSO in water” value [6] was 98 % DMSO in water, the “Solubility: DMSO” value [6] was 53700 µg/mL and the “behaviour on addition of water / aqueous medium” value [6] was “completely intolerant of water”.

In the case of `CC(C)c1cccc(C(C)C)c1[N+]1=Cc2ccc(OCCO)c[c]2[Pd-2]1([Cl])[P+](CC[P+](c1ccccc1)(c1ccccc1)[Pd-2]1([Cl])[c]2cc(OCCO)ccc2C=[N+]1c1c(C(C)C)cccc1C(C)C)(c1ccccc1)c1ccccc1` (centres unmarked) [BTC5, [(PdCl{4-(2-hydroxyethoxy})CH═N{2,6-^iPr2-C6H3})2(μ-Ph2P(CH2)2PPh2)]], the solubility at 2 h ([1]; 10% DMSO:phosphate buffered saline, aqueous with cosolvent or surfactant or cyclodextrin, kinetic from dmso stock, turbidimetric assay, 10% DMSO:PBS pH 7.4, 37° C., 2 hours incubation) is reported as 13.3 to 26.6 µg/mL.

For `CC(=O)O[C@H]1C(=O)[C@@]2(C)[C@H]([C@H](OC(=O)c3ccccc3)[C@]3(O)C[C@H](OC(=O)[C@H](O)[C@@H](NC(=O)c4ccccc4)c4ccccc4)C(C)=C1C3(C)C)[C@]1(OC(C)=O)CO[C@@H]1C[C@@H]2O` [paclitaxel], the tumour regression ([7]; MCF 7, concentration 50 μM) was 26% and the reduction in metastasis ([8]; MDA-MB 231, 50 μM) was 64%.

For “[(PdCl{4-[2-(2-hydroxyethoxy)ethoxy]}CH═N{2,6-^iPr2-C6H3})2(μ-Ph2P(CH2)2PPh2)] [BTC2]”, the “Solubility in 10% DMSO:PBS at 37° C.” value [1, 10] was 28.38 to 56.77 µg/mL, the IC50 [2] was 490 ± 20 nM and the IC50 [3] was 580 ± 12 nM. The “γ-H2AX (Western blot)” value (γ-H2AX in MCF7 cells) was “significant amount of γ-H2AX”, the tumour regression ([7]; MCF 7, concentration 24.5 μM) was 21% and the “tumour reduction (in words)” value [9] was “able to induce tumour reduction”. For the same molecule, the reduction in metastasis ([8]; MDA-MB 231, 24.4 μM) was 46%, the “Solubility: % DMSO in water” value [6] was 76 % DMSO in water and the “Solubility: DMSO” value [6] was 32600 µg/mL.

For “[(PdCl{4-[2-(2-hydroxyethoxy)ethoxy]}CH═N{2,6-^iPr2-C6H3})2(μ-Ph2P(CH2)3PPh2)] [BTC3]”, the IC50 [2] was 2500 ± 260 nM and the IC50 [3] was 2300 ± 190 nM.
